Experimental data as given in US10662218B2, “Analogs of celastrol” (ERX Pharmaceuticals, Inc., priority 2015, dated 2020).
≈ marks a conversion by molar mass, not a printed value. Where “and” joins values, the source holds several entries; their conditions need not be identical. Equal values may be shown once. Read-outs that look alike come from different tables or passages of the source.

Columns and labels:
[1] = system: C57BL/6 Diet Induced Obese (DIO) mice; assay: Oral (P.O.) administration study in DIO mice: animal fate (mortality) and clinical observations; conditions: 2 mg/kg
Experimental: Male C57BL/6 DIO mice were assigned to 12 groups, and doses of 2 mg/kg Celastrol (ERX1000-4), ERX1006, ERX1007, ERX1037, ERX1060, ERX1077, ERX1107, ERX1149, ERX1168, ERX1177, and Pristimerin were administered to Groups 2 through 12, respectively. Animals were dosed via oral gavage once daily for 10 days at a volume of 2 mL/kg. The vehicle control article was 1% methyl cellulose (400 cps) in citric acid and phosphate buffer.
Parameters assessed included mortality, clinical observations, body weights and food consumption and blood glucose evaluations.
All animals were anesthetized via carbon dioxide, sacrificed, and discarded without further evaluation on Day 11.

physchem = conditions: pH 7.4, aqueous buffer, kinetic from dmso stock; for solubility at 1 h: PBS (pH 7.4)
Experimental: • Test concentration: 100 μM (1% of DMSO) • Test systems: PBS (pH 7.4) • Incubation condition: shaken (1000 rpm) for 1 h at room temperature • Sample size: Duplicates (n=2) • Bioanalytical method: LC-MS/MS

[2] = system: C57BL/6 Diet Induced Obese (DIO) mice; assay: Oral (P.O.) administration study in DIO mice: in vivo activity, body weights; parameters: species or system mouse; conditions: for change in vivo at 2 mg/kg: Mus musculus, po, read-out: Body weight, %-Diff; for Individual Body Weight, PRED 11 / Individual Body Weight, PRED 12 / Individual Body Weight, PRED 13 / Individual Body Weight, PRED 14: individual male DIO mouse of the 2 mg/kg group; for Individual Body Weight, PRED 11: pre-dose phase day 11 (baseline); for Individual Body Weight, PRED 12: pre-dose phase day 12 (baseline); for Individual Body Weight, PRED 13: pre-dose phase day 13 (baseline); for Individual Body Weight, PRED 14: pre-dose phase day 14 (baseline); for Individual Body Weight, DSNG 1 / Individual Body Weight, DSNG 2: individual male DIO mouse; for Individual Body Weight, DSNG 1: dosing phase day 1; for Individual Body Weight, DSNG 2: dosing phase day 2; for Individual Body Weight: individual male animals
Description: The purpose of this study was to assess test articles in the Diet Induced Obese (DIO) mouse.
Male C57BL/6 Diet Induced Obese (DIO) mice were received from Taconic. Animals were acclimated to housing conditions for at least 1 week prior to vehicle acclimation dosing. Animals were acclimated to oral gavage dosing with vehicle once daily for Days 11 through 14 of the predose phase.
At initiation of dosing, animals were 21 to 22 weeks old, and their body weights ranged from 29.8 to 40.1 g.
Dose formulations were administered by oral gavage once daily for 10 days at a dose volume of 2 mL/kg. Doses were based on the most recently recorded scheduled body weight.
Body weights were recorded daily on Days 11 through 14 of the predose phase. Body weights were collected for all animals daily during the dosing phase prior to dosing.
Descriptive statistics (n, mean, standard error of the mean, standard deviation) were completed. Additionally, one-way analysis of variance followed by Dunnett's post-hoc test were performed on body weight (cumulative body weight change), glucose (glucose percent change), and food consumption (cumulative food consumption). Area under the curve (for body weight, cumulative body weight change, daily body weight change, and food consumption) was computed for treatment groups. An appropriate comparison test, such as one-way analysis of variance and Dunnett's, was performed on the group means for the area under the curve computations. Any additional statistical analysis and interpretation of the results were the responsibility of the sponsor.

[3] = Solubility (μM) Mean, Table 6-B, test concentration 100 μM (1% of DMSO), shaken (1000 rpm) 1 h at room temperature, n = 2
[4] = DIO mice, male, 2 mg/kg, phase DSNG, Day 7
[5] = DIO mice, male, 2 mg/kg, phase DSNG, Day 8
[6] = DIO mice, male, 2 mg/kg, phase DSNG, Day 9
[7] = DIO mice, male, 2 mg/kg, phase DSNG, Day 10
[8] = DIO mice, male, 2 mg/kg, phase DSNG, Day 11
[9] = Day 1, DSNG phase, 2 mg/kg, male, N=5
[10] = Day 2, DSNG phase, 2 mg/kg, male, N=5
[11] = Day 3, DSNG phase, 2 mg/kg, male, N=5
[12] = Day 4, DSNG phase, 2 mg/kg, male, N=5
[13] = Day 5, DSNG phase, 2 mg/kg, male, N=5
[14] = Day 6, DSNG phase, 2 mg/kg, male, N=5
[15] = 24 h, Day 1, DSNG phase, 2 mg/kg, male, difference of group mean
[16] = 48 h, Day 2, DSNG phase, 2 mg/kg, male, difference of group mean
[17] = 72 h, Day 3, DSNG phase, 2 mg/kg, male, difference of group mean
[18] = 96 h, Day 4, DSNG phase, 2 mg/kg, male, difference of group mean
[19] = 120 h, Day 5, DSNG phase, 2 mg/kg, male, difference of group mean
[20] = 144 h, Day 6, DSNG phase, 2 mg/kg, male, difference of group mean
[21] = 168 h, DIO mice, male, 2 mg/kg, phase DSNG, Day 7, difference of group mean from vehicle group 1
[22] = 192 h, DIO mice, male, 2 mg/kg, phase DSNG, Day 8, difference of group mean from vehicle group 1
[23] = 216 h, DIO mice, male, 2 mg/kg, phase DSNG, Day 9, difference of group mean from vehicle group 1
[24] = 240 h, DIO mice, male, 2 mg/kg, phase DSNG, Day 10, difference of group mean from vehicle group 1
[25] = 264 h, DIO mice, male, 2 mg/kg, phase DSNG, Day 11, difference of group mean from vehicle group 1

CC(=O)OC1=C(C)C2=CC=C3[C@@](C)(CC[C@@]4(C)[C@@H]5C[C@](C)(C(=O)O)CC[C@]5(C)CC[C@]34C)C2=CC1=O [ERX1007]
Individual Animal Fate: Fate Status ([1]; individual male animals, phase of fate Dosing, phase week 2, phase day 11): Scheduled Sacrifice
solubility (physchem; Solubility (μM)): 48.8 µM (≈ 24 µg/mL)
solubility (physchem; Solubility (μM) Mean): 48.8 µM (≈ 24 µg/mL)
Body weight %-Diff ([2]; 2 mg/kg oral gavage once daily, dosing phase Day 1): 1%
Body weight, Mean ([2]; 2 mg/kg oral gavage once daily, dosing phase Day 1, N 5): 34.5 g
Body weight %-Diff ([2]; 2 mg/kg oral gavage once daily, dosing phase Day 2): −1%
Body weight, Mean ([2]; 2 mg/kg oral gavage once daily, dosing phase Day 2, N 5): 34.1 g
Body weight %-Diff ([2]; 2 mg/kg oral gavage once daily, dosing phase Day 3): −2%
Body weight, Mean ([2]; 2 mg/kg oral gavage once daily, dosing phase Day 3, N 5): 33.3 g
Body weight %-Diff ([2]; 2 mg/kg oral gavage once daily, dosing phase Day 4): 0%
Body weight, Mean ([2]; 2 mg/kg oral gavage once daily, dosing phase Day 4, N 5): 33.3 g
Body weight %-Diff ([2]; 2 mg/kg oral gavage once daily, dosing phase Day 5): −2%
Body weight, Mean ([2]; 2 mg/kg oral gavage once daily, dosing phase Day 5, N 5): 33.1 g
Body weight %-Diff ([2]; 2 mg/kg oral gavage once daily, dosing phase Day 6): −3%
Body weight, Mean ([2]; 2 mg/kg oral gavage once daily, dosing phase Day 6, N 5): 32.4 g
Body weight, Mean ([2]; Day 7, DSNG phase, 2 mg/kg, male, N=5): 32.4 g
Body weight, Mean ([2]; Day 8, DSNG phase, 2 mg/kg, male, N=5): 32.7 g
Body weight, Mean ([2]; Day 9, DSNG phase, 2 mg/kg, male, N=5): 32.3 g
Body weight, Mean ([2]; Day 10, DSNG phase, 2 mg/kg, male, N=5): 32.1 g
Body weight, Mean ([2]; Day 11, DSNG phase, 2 mg/kg, male, N=5): 32.3 g
change in vivo at 2 mg/kg ([2]; 168 h, Day 7, DSNG phase, 2 mg/kg, male, difference of group mean): -3%
change in vivo at 2 mg/kg ([2]; 192 h, Day 8, DSNG phase, 2 mg/kg, male, difference of group mean): -3%
change in vivo at 2 mg/kg ([2]; 216 h, Day 9, DSNG phase, 2 mg/kg, male, difference of group mean): -3%
change in vivo at 2 mg/kg ([2]; 240 h, Day 10, DSNG phase, 2 mg/kg, male, difference of group mean): -4%
change in vivo at 2 mg/kg ([2]; 264 h, Day 11, DSNG phase, 2 mg/kg, male, difference of group mean): -5%
Individual Body Weight, PRED 11 [2]: 36.8 g and 39.8 g and 35.7 g and 32.5 g and 37.6 g
Individual Body Weight, PRED 12 [2]: 35.2 g and 38.9 g and 35.7 g and 31.7 g and 36.9 g
Individual Body Weight, PRED 13 [2]: 34.1 g and 38.7 g and 35.3 g and 32.3 g and 36.5 g
Individual Body Weight, PRED 14 [2]: 34.2 g and 38.6 g and 35.2 g and 32.7 g and 37.3 g
Individual Body Weight, DSNG 1 ([2]; 2 mg/kg, 2 mg/kg): 33.8 g and 36.3 g and 34.7 g and 31.4 g and 36.2 g
Individual Body Weight, DSNG 2 ([2]; 2 mg/kg, 2 mg/kg): 33.2 g and 36.4 g and 34.2 g and 30.3 g and 36.2 g

CC1=C(O)C(=O)C=C2C1=CC=C1[C@@]2(C)CC[C@@]2(C)[C@@H]3C[C@](C)(CN(C)C)CC[C@]3(C)CC[C@]12C [ERX1060]
Individual Animal Fate: Fate Status ([1]; mouse, in vivo): Scheduled Sacrifice
solubility at 1 h (physchem; [3]): 1.11 µM (≈ 0.515 µg/mL)
solubility at 1 h (physchem; Solubility (μM), Table 6-D): 1.11 µM (≈ 0.515 µg/mL)
Body weight, Mean [2, 4]: 33.8 g
Body weight, Mean [2, 5]: 33.3 g
Body weight, Mean [2, 6]: 33.1 g
Body weight, Mean [2, 7]: 33.5 g
Body weight, Mean [2, 8]: 34.4 g
Body weight, Mean [2, 9]: 34.6 g
Body weight, Mean [2, 10]: 34.1 g
Body weight, Mean [2, 11]: 34.4 g
Body weight, Mean [2, 12]: 34.1 g
Body weight, Mean [2, 13]: 34.2 g
Body weight, Mean [2, 14]: 34.4 g
change in vivo at 2 mg/kg [2, 15]: 1%
change in vivo at 2 mg/kg [2, 16]: -1%
change in vivo at 2 mg/kg [2, 17]: 1%
change in vivo at 2 mg/kg [2, 18]: 2%
change in vivo at 2 mg/kg [2, 19]: 1%
change in vivo at 2 mg/kg [2, 20]: 3%
change in vivo at 2 mg/kg [2, 21]: 1%
change in vivo at 2 mg/kg [2, 22]: -1%
change in vivo at 2 mg/kg [2, 23]: 0%
change in vivo at 2 mg/kg [2, 24]: 0%
change in vivo at 2 mg/kg [2, 25]: 1%
Individual Body Weight, PRED 11 [2]: 36.2 g and 38.2 g and 35.9 g and 40.9 g and 38.9 g
Individual Body Weight, PRED 12 [2]: 34.5 g and 36.6 g and 34.9 g and 41.2 g and 39.0 g
Individual Body Weight, PRED 13 [2]: 33.2 g and 34.7 g and 33.5 g and 39.8 g and 37.1 g
Individual Body Weight, PRED 14 [2]: 33.7 g and 35.1 g and 32.7 g and 40.6 g and 37.4 g
Individual Body Weight, DSNG 1 ([2]; 2 mg/kg, 2 mg/kg): 32.9 g and 34.3 g and 31.3 g and 38.7 g and 35.6 g
Individual Body Weight, DSNG 2 ([2]; 2 mg/kg, 2 mg/kg): 33.2 g and 34.1 g and 29.8 g and 38.2 g and 35.2 g

CC1=C(O)C(=O)C=C2C1=CC=C1[C@@]2(C)CC[C@@]2(C)[C@@H]3C[C@](C)(N)CC[C@]3(C)CC[C@]12C [ERX1077]
Individual Animal Fate: Fate Status ([1]; mouse, in vivo): Scheduled Sacrifice
solubility at 1 h (physchem; [3]): 16.7 µM (≈ 7.04 µg/mL)
solubility at 1 h (physchem; Solubility (μM), Table 6-D): 16.7 µM (≈ 7.04 µg/mL)
Individual Body Weight ([2]; 2 mg/kg, Phase Day DSNG 1): 31.5 g and 32.8 g and 34.5 g and 38.3 g and 34.9 g
Individual Body Weight ([2]; 2 mg/kg, Phase Day DSNG 2): 31.2 g and 32.5 g and 34.1 g and 38.4 g and 34.4 g
Individual Body Weight ([2]; 2 mg/kg, Phase Day PRED 11 (pre-dose baseline)): 32.6 g and 34.8 g and 36.1 g and 40.2 g and 38.0 g
Individual Body Weight ([2]; 2 mg/kg, Phase Day PRED 12 (pre-dose baseline)): 33.2 g and 34.0 g and 35.8 g and 40.4 g and 37.0 g
Individual Body Weight ([2]; 2 mg/kg, Phase Day PRED 13 (pre-dose baseline)): 31.6 g and 33.1 g and 35.6 g and 39.7 g and 36.9 g
Individual Body Weight ([2]; 2 mg/kg, Phase Day PRED 14 (pre-dose baseline)): 32.7 g and 33.6 g and 35.7 g and 40.6 g and 36.6 g
Body weight, Mean [2, 4]: 33.3 g
Body weight, Mean [2, 5]: 33.7 g
Body weight, Mean [2, 6]: 33.5 g
Body weight, Mean [2, 7]: 33.8 g
Body weight, Mean [2, 8]: 33.9 g
Body weight, Mean [2, 9]: 34.4 g
Body weight, Mean [2, 10]: 34.1 g
Body weight, Mean [2, 11]: 34.0 g
Body weight, Mean [2, 12]: 33.7 g
Body weight, Mean [2, 13]: 33.7 g
Body weight, Mean [2, 14]: 34.0 g
change in vivo at 2 mg/kg [2, 15]: 0%
change in vivo at 2 mg/kg [2, 16]: -1%
change in vivo at 2 mg/kg [2, 17]: 0%
change in vivo at 2 mg/kg [2, 18]: 1%
change in vivo at 2 mg/kg [2, 19]: 0%
change in vivo at 2 mg/kg [2, 20]: 1%
change in vivo at 2 mg/kg [2, 21]: -1%
change in vivo at 2 mg/kg [2, 22]: 0%
change in vivo at 2 mg/kg [2, 23]: 1%
change in vivo at 2 mg/kg [2, 24]: 1%
change in vivo at 2 mg/kg [2, 25]: -1%
